Source: patent publication US12479847B2 (DANA-FARBER CANCER INSTITUTE, INC., priority 2019, dated 2025)

Columns and labels:
Assay in all cases: KINOMEscan (ScanMAX) kinase profiling
Type in all cases: binding
[1] = molecular target: T1, panel of 468 kinases (Homo sapiens, UniProt P36888, R834Q); conditions: FLT3(R834Q); 1 μM; read-out: % control
T1 construct: purchased KINOMEscan (ScanMAX) service
T1 sequence (P36888 27-993 R834Q): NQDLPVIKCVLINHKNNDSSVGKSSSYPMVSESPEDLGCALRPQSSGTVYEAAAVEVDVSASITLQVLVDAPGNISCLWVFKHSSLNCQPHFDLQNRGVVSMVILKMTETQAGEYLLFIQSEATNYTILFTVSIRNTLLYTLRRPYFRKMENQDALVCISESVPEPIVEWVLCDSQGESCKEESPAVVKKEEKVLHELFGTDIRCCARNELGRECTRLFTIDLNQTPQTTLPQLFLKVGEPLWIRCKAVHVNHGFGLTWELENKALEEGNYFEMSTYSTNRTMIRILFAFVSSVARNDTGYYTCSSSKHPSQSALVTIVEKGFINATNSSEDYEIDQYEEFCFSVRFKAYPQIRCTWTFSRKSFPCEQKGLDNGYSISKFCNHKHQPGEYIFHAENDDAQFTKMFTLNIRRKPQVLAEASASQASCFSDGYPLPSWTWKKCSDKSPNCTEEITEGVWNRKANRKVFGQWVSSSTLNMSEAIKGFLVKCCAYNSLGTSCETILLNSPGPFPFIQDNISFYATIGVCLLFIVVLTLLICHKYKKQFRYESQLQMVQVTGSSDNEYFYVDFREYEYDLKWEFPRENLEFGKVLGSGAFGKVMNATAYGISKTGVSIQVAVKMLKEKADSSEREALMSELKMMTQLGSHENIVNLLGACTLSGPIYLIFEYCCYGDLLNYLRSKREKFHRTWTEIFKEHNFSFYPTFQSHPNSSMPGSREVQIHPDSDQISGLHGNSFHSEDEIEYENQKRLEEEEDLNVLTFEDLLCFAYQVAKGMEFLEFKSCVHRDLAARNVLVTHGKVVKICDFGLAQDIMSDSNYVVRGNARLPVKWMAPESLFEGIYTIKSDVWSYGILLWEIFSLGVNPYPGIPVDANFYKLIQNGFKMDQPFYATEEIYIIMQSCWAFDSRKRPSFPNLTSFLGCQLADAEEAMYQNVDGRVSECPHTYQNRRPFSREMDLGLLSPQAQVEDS

[2] = molecular target: T2, panel of 468 kinases (Homo sapiens, UniProt P54764); conditions: EPHA4; 1 μM; read-out: % control
T2 construct: purchased KINOMEscan (ScanMAX) service

[3] = molecular target: T3, panel of 468 kinases (Homo sapiens, UniProt Q8NE63); conditions: HIPK4; 1 μM; read-out: % control
T3 construct: purchased KINOMEscan (ScanMAX) service
T3 sequence (Q8NE63 1-616): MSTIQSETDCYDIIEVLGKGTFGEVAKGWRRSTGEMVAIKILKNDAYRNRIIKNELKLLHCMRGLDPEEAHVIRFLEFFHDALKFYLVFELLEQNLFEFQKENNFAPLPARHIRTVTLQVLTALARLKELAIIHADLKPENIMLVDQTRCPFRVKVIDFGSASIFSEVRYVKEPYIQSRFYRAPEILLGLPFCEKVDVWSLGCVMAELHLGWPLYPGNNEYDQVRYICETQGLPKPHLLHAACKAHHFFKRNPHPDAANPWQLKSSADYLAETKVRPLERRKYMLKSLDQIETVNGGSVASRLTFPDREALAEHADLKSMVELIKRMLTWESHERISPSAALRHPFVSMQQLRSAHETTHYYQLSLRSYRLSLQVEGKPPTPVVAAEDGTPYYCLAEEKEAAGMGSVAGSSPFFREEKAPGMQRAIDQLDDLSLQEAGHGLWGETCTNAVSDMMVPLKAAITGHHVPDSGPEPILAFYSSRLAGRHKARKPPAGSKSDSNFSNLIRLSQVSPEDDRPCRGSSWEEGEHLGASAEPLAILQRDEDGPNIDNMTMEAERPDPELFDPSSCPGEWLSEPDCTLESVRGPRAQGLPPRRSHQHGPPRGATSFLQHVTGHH

T2 sequence (P54764 20-986): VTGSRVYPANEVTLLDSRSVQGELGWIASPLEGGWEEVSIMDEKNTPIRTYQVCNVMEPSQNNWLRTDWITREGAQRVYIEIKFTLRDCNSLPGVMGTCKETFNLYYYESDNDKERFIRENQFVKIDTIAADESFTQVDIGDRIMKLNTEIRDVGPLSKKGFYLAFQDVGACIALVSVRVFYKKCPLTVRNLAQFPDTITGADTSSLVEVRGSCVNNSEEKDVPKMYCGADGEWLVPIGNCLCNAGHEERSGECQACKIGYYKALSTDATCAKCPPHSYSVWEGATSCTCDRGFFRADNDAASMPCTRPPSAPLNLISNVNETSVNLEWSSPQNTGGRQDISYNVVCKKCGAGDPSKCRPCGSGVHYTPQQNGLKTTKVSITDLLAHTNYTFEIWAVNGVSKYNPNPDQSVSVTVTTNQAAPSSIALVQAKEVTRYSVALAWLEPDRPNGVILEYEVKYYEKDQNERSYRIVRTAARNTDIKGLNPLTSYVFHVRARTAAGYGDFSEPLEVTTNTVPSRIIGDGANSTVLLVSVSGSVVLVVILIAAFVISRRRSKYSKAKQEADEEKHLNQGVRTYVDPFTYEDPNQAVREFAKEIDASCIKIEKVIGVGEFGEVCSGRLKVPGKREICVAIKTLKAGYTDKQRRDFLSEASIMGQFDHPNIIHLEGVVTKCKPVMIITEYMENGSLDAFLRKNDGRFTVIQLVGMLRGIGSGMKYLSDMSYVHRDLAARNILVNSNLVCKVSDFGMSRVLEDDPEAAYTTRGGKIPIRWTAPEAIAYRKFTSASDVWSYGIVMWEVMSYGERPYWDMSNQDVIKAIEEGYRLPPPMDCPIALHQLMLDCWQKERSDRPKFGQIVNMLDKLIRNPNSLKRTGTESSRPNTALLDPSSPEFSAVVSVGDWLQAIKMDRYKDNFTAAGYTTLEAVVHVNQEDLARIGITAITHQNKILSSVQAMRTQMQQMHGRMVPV

| SMILES | remaining binding at 1 µM [1] [%] | remaining binding at 1 µM [2] [%] | remaining binding at 1 µM [3] [%] |
| --- | --- | --- | --- |
| CNc1nc(Nc2ccc(S(=O)(=O)N3CCC(N4CCOCC4)CC3)cc2OC)nc2[nH]cc(Cl)c12 [Compound 12, 5-chloro-N2-(2-methoxy-4-((4-morpholinopiperidin-1-yl)sulfonyl)phenyl)-N4-methyl-7H-pyrrolo[2,3-d]pyrimidine-2,4-diamine] | 92 | 86 | 100 |
| CNc1nc(Nc2ccc(C(=O)N3CCC(N4CCOCC4)CC3)c3c2OCO3)nc2[nH]cc(Cl)c12 [Compound 75, (7-((5-chloro-4-(methylamino)-7H-pyrrolo[2,3-d]pyrimidin-2-yl)amino)benzo[d][1,3]dioxol-4-yl)(4-morpholinopiperidin-1-yl)methanone] | 73 | 92 | 97 |
| CNc1nc(Nc2ccc(P3(=O)CCN(C4CCOCC4)CC3)cc2OC)nc2[nH]cc(Cl)c12 [Compound 77, 4-(4-((5-chloro-4-(methylamino)-7H-pyrrolo[2,3-d]pyrimidin-2-yl)amino)-3-methoxyphenyl)-1-(tetrahydro-2H-pyran-4-yl)-1,4-azaphosphinane 4-oxide] | 82 | 79 | 99 |
